Reference: patent US4500467A, “Benzoylthio compounds, their preparation and their use as drugs” (BASF Aktiengesellscaft, priority 1982, dated 1985)

Molecular target: T1, angiotensin converting enzyme (Rattus norvegicus, UniProt P47820)
T1 construct: from tissue; host or cells: rat blood plasma (ex vivo, after oral dosing)
T1 sequence (P47820 36-1238 limits assumed): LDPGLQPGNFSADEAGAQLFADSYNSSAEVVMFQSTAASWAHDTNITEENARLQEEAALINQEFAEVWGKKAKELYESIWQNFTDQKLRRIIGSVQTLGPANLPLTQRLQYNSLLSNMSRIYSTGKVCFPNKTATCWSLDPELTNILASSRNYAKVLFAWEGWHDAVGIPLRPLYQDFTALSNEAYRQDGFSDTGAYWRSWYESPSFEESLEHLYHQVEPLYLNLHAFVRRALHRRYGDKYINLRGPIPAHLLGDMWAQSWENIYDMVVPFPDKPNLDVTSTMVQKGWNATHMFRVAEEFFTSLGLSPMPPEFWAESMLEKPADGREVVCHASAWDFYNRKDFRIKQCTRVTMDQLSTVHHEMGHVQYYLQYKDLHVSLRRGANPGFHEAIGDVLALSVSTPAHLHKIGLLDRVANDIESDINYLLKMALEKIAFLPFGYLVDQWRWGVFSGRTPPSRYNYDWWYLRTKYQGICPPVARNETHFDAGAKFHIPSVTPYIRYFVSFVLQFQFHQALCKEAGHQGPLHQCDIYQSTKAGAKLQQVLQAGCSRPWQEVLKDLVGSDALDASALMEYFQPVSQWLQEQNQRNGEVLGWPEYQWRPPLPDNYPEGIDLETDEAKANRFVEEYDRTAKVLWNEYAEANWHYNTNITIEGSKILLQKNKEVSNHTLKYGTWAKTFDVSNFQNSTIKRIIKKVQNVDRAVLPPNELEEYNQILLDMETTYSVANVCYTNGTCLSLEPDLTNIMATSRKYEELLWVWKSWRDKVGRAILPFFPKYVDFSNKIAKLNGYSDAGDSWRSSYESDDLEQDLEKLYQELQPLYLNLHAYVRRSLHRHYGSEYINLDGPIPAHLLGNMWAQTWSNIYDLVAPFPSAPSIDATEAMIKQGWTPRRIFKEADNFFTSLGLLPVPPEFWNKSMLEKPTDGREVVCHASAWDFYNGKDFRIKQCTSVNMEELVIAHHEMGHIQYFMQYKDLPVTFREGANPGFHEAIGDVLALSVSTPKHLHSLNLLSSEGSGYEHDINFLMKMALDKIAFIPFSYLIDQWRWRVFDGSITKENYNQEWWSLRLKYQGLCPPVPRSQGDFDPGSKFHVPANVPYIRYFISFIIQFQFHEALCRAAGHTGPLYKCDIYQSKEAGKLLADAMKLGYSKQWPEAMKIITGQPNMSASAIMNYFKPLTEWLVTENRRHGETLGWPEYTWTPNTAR
Assay: inhibition of angiotensin converting enzyme ex vivo in rats (plasma before and 2 hours after oral administration, 14C-hippuryl-histidylleucine substrate)
Settings: for angiotensin converting enzyme is inhibited in doses smaller than the captopril dose: compared with captopril dose; for ED50: rat, plasma 2 hours after administration, read-out: ED 50% (dose which produces 50% inhibition of angiotensin converting enzyme); for relative activity: relative to captopril = 1.00, from ED 50%
Protocol: The following method was used in investigating the pharmacodynamic effect (inhibition of angiotensin converting enzyme ex vivo in rats):
Before, and 2 hours after, oral administration of the substance, blood was withdrawn from the animals, and the plasma was diluted 1:6 with H2 O. The diluted plasma (100 μl) was incubated with 50 μl of ^14 C-hippuryl-histidylleucine solution (K phosphate 260 mM, NaCl 938 mM, pH=8.3) for 1 hour at 37° C. The reaction was terminated by adding 2 ml of 0.1N HCl, and the product, ^14 C-hippuric acid, was extracted with toluene scintillator (PPO+POPOP+toluene+21% of isoamyl alcohol) and determined using a scintillation counter for liquids. After subtraction of the blank value (incubation time=0 minute), the percentage inhibition was determined from the enzymatic activities in the plasma before and after administration of the substance. The ED 50%, ie. the dose which produces 50% inhibition, is calculated from the individual inhibitory values by linear regression following logit-log transformation.

| angiotensin converting enzyme is inhibited in doses smaller than the captopril dose | ED50 | relative activity | Structure (SMILES) |
| --- | --- | --- | --- |
| 5 times smaller | 0.2 mg/kg | 5.0 | C[C@H](NC(=O)[C@H](CSC(=O)c1ccccc1)SC(=O)c1ccccc1)C(=O)N1CCC[C@H]1C(=O)O [Example 70, N-[(R)-2,3-Bis-(benzoylthio)-propionyl]-alanylproline] |
| 5 times smaller | 0.2 mg/kg | 5.0 | O=C(SC[C@H](SC(=O)c1ccccc1)C(=O)N[C@@H](Cc1c[nH]c2ccccc12)C(=O)O)c1ccccc1 [Example 68, N-[(R)-2,3-Bis-(benzoylthio)-propionyl]-tryptophan] |
